One data set concerns antiserum R771. Briefly: Competitive inhibition ELISA for neoepitope specificity of the antiserum. Type of data set: binding, rabbit. As to conditions: for competition by / binding of the antibody to competing synthetic peptide: competitive inhibition ELISA, FIG. 1A and B. Here is the method: A direct enzyme-linked immunosorbent assay (ELISA) assay was used to determine the antibody titer. The antiserum with the highest titer was selected for use. Investigation of the neoepitope specificity of the antiserum was performed by competitive inhibition ELISA as described.^17 The percentage binding and percentage inhibition were calculated for each of the standard peptides and results were expressed on a molar basis.
(§1) Immulon™ 2 plates (VWR International, Montreal, Canada) were coated with the peptide-ovalbumin conjugate (prepared as described above for the hemocyanin conjugate) diluted in phosphate-buffered saline (PBS), pH 7.2, at 3 ng/well (50 μl/well), the optimum concentration as determined by checkerboard analyses. After overnight incubation at 4° C., the plate was washed three times with PBS-0.1% Tween™ 20 and blocked with 100 μl of PBS-1% bovine serum albumin (BSA), at room temperature for 30 minutes. Serial dilutions of the standard peptide containing the epitope that had been used for immunization were prepared and added at 50 μl/well in triplicate to round bottom polypropylene plates used as preincubation plates; the antiserum was diluted 1:12,000 (optimum dilution as determined by checkerboard analyses) in PBS-1% BSA, 0.1% Tween 20, pH 7.2, and added to the plates (50 μl/well). In the nonspecific binding wells 50 μl of PBS-1% BSA and 50 μl of PBS-1% BSA, 0.1% Tween 20 were added; the maximum binding wells contained 50 μl of the diluted antiserum and 50 μl of PBS-1% BSA. After 1 hour incubation at 37° C., 50 μl of each preincubated well was transferred to the Immulon 2 flat-bottom, 96-well microtiter plates. The plates were incubated at 4° C. for 30 minutes and then washed three times with PBS-0.1% Tween 20. Alkaline phosphatase-conjugated goat antirabbit IgG (Sigma, St. Louis, Mo.), diluted 1:1000 in PBS-1% BSA, 0.1% Tween 20 was then added to each well (50 μl/well). The plate was incubated for 1 hour at 37° C., washed three times with PBS-0.1% Tween 20, and once with distilled water. One 5 mg tablet of alkaline phosphatase substrate (Sigma) was dissolved in 10 ml of 8.9 mmol/L diethanolamine buffer, pH 9.8, and added to the plate (50 μl/well). The optical density (405 nm) was read after 1 hour incubation. The detection limit of the newly developed assay was 2.8 ng/ml and the coefficients of variation (% CV) of the intra-assays and inter-assays were <10%. The analytic recovery was 87.2 to 97.3% and the recovery rates for the serial dilution were 92 to 108%.

Data set [1] deals with T1, Recombinant human cathepsin K (Homo sapiens, UniProt P43235).
T1 construct: processed to the mature form and purified as described previously; made in house; host or cells: Pichia pastoris
T1 sequence (P43235 115-329): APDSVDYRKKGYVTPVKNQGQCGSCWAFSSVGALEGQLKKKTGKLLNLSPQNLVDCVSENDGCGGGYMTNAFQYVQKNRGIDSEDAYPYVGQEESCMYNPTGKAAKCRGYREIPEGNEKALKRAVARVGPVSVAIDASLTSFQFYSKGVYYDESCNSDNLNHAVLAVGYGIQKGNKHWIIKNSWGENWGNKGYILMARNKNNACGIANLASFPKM
Briefly: Digestion of human Col II with cathepsin K, C2K neoepitope by inhibition ELISA. In kind it is biochemical. As to conditions: pH 7.0, 2 μmol/L cathepsin K, peak at 48 hours, versus absence of chondroitin sulfate (FIG. 4). The protocol:
as §1, with “Alkaline phosphatase-conjugated goat antirabbit IgG (Sigma, St. Louis, Mo.), diluted 1:1000 in PBS-1% BSA, 0.1% Tween 20 was then added to each well (50 μl/well). The plate was incubated for 1 hour at 37° C., washed three times with PBS-0.1% Tween 20, and once with distilled water. One 5 mg tablet of alkaline phosphatase substrate (Sigma) was dissolved in 10 ml of 8.9 mmol/L diethanolamine buffer, pH 9.8, and added to the plate (50 μl/well).” left out, “The detection limit of the newly developed assay was 2.8 ng/ml and the coefficients of variation (% CV) of the intra-assays and inter-assays were <10%. The analytic recovery was 87.2 to 97.3% and the recovery rates for the serial dilution were 92 to 108%.” left out

The next data set concerns the target T2, α-chymotrypsin (Bos taurus, UniProt P00766).
T2 construct: purchased Sigma
Briefly: Treatment of immunizing peptide with α-chymotrypsin. As to conditions: 50 ng/ml immunizing peptide solution. Here is the method:
The content of C2K and C2C neoepitopes in cartilage were determined by extraction with α-chymotrypsin (Sigma). This degrades denatured but not intact triple helical collagen, to solubilize the collagen neoepitopes that can then be assayed. Femoral condylar cartilages from 17 normal and 19 OA individuals were washed and digested with α-chymotrypsin, as previously described.^23 The digest was removed and stored at −20° C. until analyzed. To ensure that the cathepsin K-generated neoepitope is not cleaved by α-chymotrypsin, a separate digestion was first performed by treating a 50 ng/ml immunizing peptide solution with α-chymotrypsin as described above. […] The concentration of the neoepitope released from the cartilage in the α-chymotrypsin digests was expressed as pmol of neoepitope/mg wet wt of cartilage (based on the molecular weights of the two neoepitope sequences used as standards in the ELISA assays: 717.8 Da for the C2K neoepitope and 972 Da for C2C).

For data set [2], the target named is antiserum R771 (rabbit polyclonal anti-C2K neoepitope antiserum). The data set can be described thus: competitive inhibition ELISA: free peptide against plate-bound peptide-ovalbumin conjugate, antiserum R771 at 1:12,000. On the technique in general: ELISA stands for enzyme-linked immunosorbent assay.

Data on ten molecules can be found in US20110281285A1, “Assay for Detecting Cathepsin K Activty in Bone, Cartilage and/or Soft Tissue” (priority 2009, published 2011).

Non-standard residues stand in square brackets, D forms with d. No end group written: not given here. Hyp = O=C(O)[C@@H]1C[C@@H](O)CN1

With “(v): immunizing peptide with deletion of the alanine residue (CGEGKPG; listed as Homo sapiens)”, in the data set with antiserum R771, the “competition by / binding of the antibody to competing synthetic peptide” value (“competition by / binding of the antibody” for short) is given as “negligible binding”.

For the molecule “(vi): immunizing peptide with glutamic acid and alanine residues inverted (CGAEGKPG; listed as Homo sapiens)”, in the data set on antiserum R771, the “competition by / binding of the antibody” value is on record as “negligible binding”.

chondroitin 6-sulfate [C6S]: the “amount of C2K neoepitope on addition to the digestion buffer” value in data set [1] is reported as “significantly increased”.

For “CGEAGKPG [immunizing peptide, N-terminal cysteine added]”, the “loss of epitope after α-chymotrypsin treatment” value on α-chymotrypsin was “No loss of epitope”. In the data set with antiserum R771 (peptide alone as competitive antigen, antiserum R771 diluted 1:12,000, read-out: median inhibitory concentration (IC50) in ELISA inhibition assay), the IC50 is 45 nM.

For the molecule “peptide iii: sequence similar to the immunizing peptide, except for the proline residue that was 4-hydroxylated (CGEAGK[Hyp]G)”, in the data set with antiserum R771, the “competition by / binding of the antibody” value was “reduced affinity”.

Take “peptide (iv): N-terminally truncated peptide, deletion of the G (CEAGKPG; listed as Homo sapiens)”: the “competition by / binding of the antibody” value with antiserum R771 was “some affinity”.

Turning to chondroitin 4-sulfate [C4S], in data set [1], the “amount of C2K neoepitope on addition to the digestion buffer” value is “significantly increased”.

As for “(i): one-residue truncation of the immunizing peptide at the C terminus (CGEAGKP; listed as Homo sapiens)”, in the data set with antiserum R771, the “competition by / binding of the antibody” value is recorded as “negligible”.

Consider “(ii): one-residue extension of the immunizing peptide at the C terminus (CGEAGKPGK; listed as Homo sapiens)”, for which the “competition by / binding of the antibody” value in the data set on antiserum R771 is reported as “negligible”.

In data set [2], CGEAGKPG yielded an IC50 of 45 nM.
